The target in this experiment is T1, Recombinant human CBP containing the bromodomain (CBP-BD (1043-1159)) (Homo sapiens, UniProt Q92793).
T1 construct: Recombinant human CBP bromodomain (CBP-BD (1043-1159)); made in house; host or cells: E. coli BL21-CodonPlus (DE3), modified pET vector
Kind of experiment: CBP Alphascreen binding assay. Conditions: read-out: CREBBP (CBP) IC50. The essentials:
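Buffer: 50 mM HEPES pH 7.5, 50 mM NaCl, 0.01% BSA, 0.01% Triton X-100, 2 mM DTT. The signal was normalised to plate controls and fitted with a four-parameter curve to give IC50.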

T1 sequence (Q92793 1081-1197): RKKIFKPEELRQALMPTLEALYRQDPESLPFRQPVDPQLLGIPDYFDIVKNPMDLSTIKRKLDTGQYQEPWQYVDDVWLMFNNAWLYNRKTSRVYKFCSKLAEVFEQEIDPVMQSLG

As usually defined, the IC50 is the point on the concentration scale where inhibition reaches its midpoint. With `Cc1noc(C)c1-c1cnc2c(CC3CCC3)cn(-c3ccc(C#N)cc3)c2c1` [P-0076, 4-(3-(cyclobutylmethyl)-6-(3,5-dimethylisoxazol-4-yl)-1H-pyrrolo[3,2-b]pyridin-1-yl)benzonitrile], the IC50 lay within 1 to 8 µM.

With `Cc1noc(C)c1-c1cnc2c(CC3CCC3)cn(-c3ccnc(C#N)c3)c2c1` [P-0077, 4-(3-(cyclobutylmethyl)-6-(3,5-dimethylisoxazol-4-yl)-1H-pyrrolo[3,2-b]pyridin-1-yl)picolinonitrile], the 50% inhibitory concentration (IC50) lay in the range of 0.0001 to 1 µM. For `Cc1noc(C)c1-c1cnc2c(c1)c(-c1cccc(C(=O)NC#N)c1)cn2Cc1ccccc1` [P-0078, 3-(1-benzyl-5-(3,5-dimethylisoxazol-4-yl)-1H-pyrrolo[2,3-b]pyridin-3-yl)-N-cyanobenzamide], the concentration for half-maximal inhibition (IC50) fell in the range of 1 to 8 µM. The figure for `Cc1noc(C)c1-c1cnc2c(c1)c(-c1cccc(C(=O)NO)c1)cn2Cc1ccccc1` [P-0079, 3-(1-benzyl-5-(3,5-dimethylisoxazol-4-yl)-1H-pyrrolo[2,3-b]pyridin-3-yl)-N-hydroxybenzamide] is 0.0001 to 1 µM; for `Cc1noc(C)c1-c1cnc2c(c1)c(-c1ccc(C(=O)O)cc1)cn2C(C)c1ccccn1` (stereo not drawn) [P-0080, 4-(5-(3,5-dimethylisoxazol-4-yl)-1-(1-(pyridin-2-yl)ethyl)-1H-pyrrolo[2,3-b]pyridin-3-yl)benzoic acid] it is 1 to 8 µM; for `Cc1noc(C)c1-c1cnc2c(c1)c(-c1cccc(S(N)(=O)=O)c1)cn2Cc1ccccc1` [P-0081, 3-(1-benzyl-5-(3,5-dimethylisoxazol-4-yl)-1H-pyrrolo[2,3-b]pyridin-3-yl)benzenesulfonamide] it is 1 to 8 µM. The figure for `CNS(=O)(=O)c1cccc(-c2cn(Cc3ccccc3)c3ncc(-c4c(C)noc4C)cc23)c1` [P-0082, 3-(1-benzyl-5-(3,5-dimethylisoxazol-4-yl)-1H-pyrrolo[2,3-b]pyridin-3-yl)-N-methylbenzenesulfonamide] is 8 to 1000 µM; for `Cc1noc(C)c1-c1cnc2c(c1)c(-c1cccc(S(=O)(=O)NC3CC3)c1)cn2Cc1ccccc1` [P-0083, 3-(1-benzyl-5-(3,5-dimethylisoxazol-4-yl)-1H-pyrrolo[2,3-b]pyridin-3-yl)-N-cyclopropylbenzenesulfonamide] it is 1 to 8 µM; for `Cc1noc(C)c1-c1cnc2c(C(=O)C3CC3)c(O)n(-c3ccnc(C(=O)O)c3)c2c1` [P-0084, 4-(3-(cyclopropanecarbonyl)-6-(3,5-dimethylisoxazol-4-yl)-2-hydroxy-1H-pyrrolo[3,2-b]pyridin-1-yl)picolinic acid] it is 0.0001 to 1 µM.

Regarding `Cc1noc(C)c1-c1cnc2c(c1)c(-c1cccc(C(=O)O)c1)cn2C(=O)c1ccccc1` [P-0085, 3-(1-benzoyl-5-(3,5-dimethylisoxazol-4-yl)-1H-pyrrolo[2,3-b]pyridin-3-yl)benzoic acid], the concentration for half-maximal inhibition (IC50) is 1 to 8 µM. Then `Cc1noc(C)c1-c1cnc2c(CC3CCC3)cn(-c3c(C(=O)O)ccc(Br)c3F)c2c1` [P-0086, 4-bromo-2-(3-(cyclobutylmethyl)-6-(3,5-dimethylisoxazol-4-yl)-1H-pyrrolo[3,2-b]pyridin-1-yl)-3-fluorobenzoic acid], with 0.0001 to 1 µM; and `COc1c(-n2cc(CC3CCC3)c3ncc(-c4c(C)noc4C)cc32)ccc(C(=O)O)c1F` [P-0087, 4-(3-(cyclobutylmethyl)-6-(3,5-dimethylisoxazol-4-yl)-1H-pyrrolo[3,2-b]pyridin-1-yl)-2-fluoro-3-methoxybenzoic acid], with 0.0001 to 1 µM. The figure for `Cc1noc(C)c1-c1cnc2c(C(=O)c3cccc(Cl)c3)cn(-c3ccnc(C(=O)O)c3)c2c1` [P-0088, 4-(3-(3-chlorobenzoyl)-6-(3,5-dimethylisoxazol-4-yl)-1H-pyrrolo[3,2-b]pyridin-1-yl)picolinic acid] is 0.0001 to 1 µM; for `Cc1noc(C)c1-c1cnc2c(C(=O)c3ccccc3Cl)cn(-c3ccnc(C(=O)O)c3)c2c1` [P-0089, 4-(3-(2-chlorobenzoyl)-6-(3,5-dimethylisoxazol-4-yl)-1H-pyrrolo[3,2-b]pyridin-1-yl)picolinic acid] it is 0.0001 to 1 µM; for `Cc1noc(C)c1-c1cnc2c(Cc3cccc(Cl)c3)cn(-c3ccnc(C(=O)O)c3)c2c1` [P-0090, 4-(3-(3-chlorobenzyl)-6-(3,5-dimethylisoxazol-4-yl)-1H-pyrrolo[3,2-b]pyridin-1-yl)picolinic acid] it is 0.0001 to 1 µM. The figure for `Cc1noc(C)c1-c1cnc2c(Cc3ccccc3Cl)cn(-c3ccnc(C(=O)O)c3)c2c1` [P-0091, 4-(3-(2-chlorobenzyl)-6-(3,5-dimethylisoxazol-4-yl)-1H-pyrrolo[3,2-b]pyridin-1-yl)picolinic acid] is 0.0001 to 1 µM; for `Cc1noc(C)c1-c1cnc2c(c1)c(-c1cccc(C(=O)NS(C)(=O)=O)c1)cn2Cc1ccccc1` [P-0092, 3-(1-benzyl-5-(3,5-dimethylisoxazol-4-yl)-1H-pyrrolo[2,3-b]pyridin-3-yl)-N-(methylsulfonyl)benzamide] it is 1 to 8 µM; for `Cc1noc(C)c1-c1cnc2c(c1)c(C1=CCC(C(=O)O)CC1)cn2Cc1ccccc1` (stereo not drawn) [P-0093, 4-(1-benzyl-5-(3,5-dimethylisoxazol-4-yl)-1H-pyrrolo[2,3-b]pyridin-3-yl)cyclohex-3-ene-1-carboxylic acid] it is 0.0001 to 1 µM. As for `Cc1noc(C)c1-c1cnc2c(c1)c(-c1c(F)cc(C(=O)O)cc1F)cn2C(C)c1ccccn1` (stereo not drawn) [P-0094, 4-(5-(3,5-dimethylisoxazol-4-yl)-1-(1-(pyridin-2-yl)ethyl)-1H-pyrrolo[2,3-b]pyridin-3-yl)-3,5-difluorobenzoic acid], the 50% inhibitory concentration (IC50) was in the range of 0.0001 to 1 µM. The figure for `Cc1noc(C)c1-c1cnc2c(c1)c(-c1c(Cl)cc(C(=O)O)cc1Cl)cn2C(C)c1ccccn1` (stereo not drawn) [P-0095, 3,5-dichloro-4-(5-(3,5-dimethylisoxazol-4-yl)-1-(1-(pyridin-2-yl)ethyl)-1H-pyrrolo[2,3-b]pyridin-3-yl)benzoic acid] is 0.0001 to 1 µM; for `Cc1noc(C)c1-c1cnc2c(c1)c(-c1c(F)ccc(NS(C)(=O)=O)c1F)cn2C(C)c1ccccn1` (stereo not drawn) [P-0096, N-(3-(5-(3,5-dimethylisoxazol-4-yl)-1-(1-(pyridin-2-yl)ethyl)-1H-pyrrolo[2,3-b]pyridin-3-yl)-2,4-difluorophenyl)methanesulfonamide] it is 1 to 8 µM.

For the origin of these results see US11446287B2, “Compounds and methods for EP300 or CBP modulation and indications therefor” (Opna Immuno-Oncology SA, priority 2019, dated 2022).
